According to PubChem BioAssay (NCI):
Values joined by “and” are separate entries in the source; they are usually repeats but may differ in a detail not shown here. Equal entries are not always repeated.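 Following 48 hours of exposure in 96-well plates, responses at five concentrations were used to interpolate endpoints linearly. GI50 is the concentration that inhibits growth by half. TGI marks complete inhibition of growth.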

Tests used:
Assay in all cases: growth of human tumour cells (NCI), 48 h
DLD-1 colon = tested on: DLD-1 colon
HCC-2998 colon = tested on: HCC-2998 colon
M19-MEL melanoma = tested on: M19-MEL melanoma
NCI-H226 lung = tested on: NCI-H226 lung
NCI-H23 lung = tested on: NCI-H23 lung
NCI-H460 lung = tested on: NCI-H460 lung
SNB-75 CNS = tested on: SNB-75 CNS
TK-10 renal = tested on: TK-10 renal
UO-31 renal = tested on: UO-31 renal
MDA-MB-231 breast = tested on: MDA-MB-231 breast

Structure (SMILES)	TGI (DLD-1 colon)	TGI (HCC-2998 colon)	TGI (M19-MEL melanoma)	TGI (NCI-H226 lung)	TGI (NCI-H23 lung)	TGI (NCI-H460 lung)	TGI (SNB-75 CNS)	TGI (TK-10 renal)	TGI (UO-31 renal)	TGI (MDA-MB-231 breast) [µM]	GI50 (DLD-1 colon) [µM]	GI50 (HCC-2998 colon) [µM]	GI50 (M19-MEL melanoma) [µM]	GI50 (MDA-MB-231 breast) [µM]	GI50 (NCI-H23 lung) [µM]	GI50 (SNB-75 CNS) [µM]	GI50 (TK-10 renal) [µM]	GI50 (UO-31 renal) [µM]	GI50 (NCI-H226 lung) [µM]	GI50 (NCI-H460 lung) [µM]
O=C1c2cccc3cccc(c23)C(=O)N1CCCN1CCN(CCCN2C(=O)c3cccc4cccc(c34)C2=O)CC1	> 100 µM	> 100 µM	> 100 µM	> 100 µM	> 100 µM	> 100 µM	> 100 µM	> 100 µM	> 100 µM	–	–	–	–	–	–	–	–	–	–	–
COc1ccccc1NC(=O)C(=O)C1C(=O)Nc2ccccc2S1=O (stereo not given)	> 100 µM	> 100 µM	> 100 µM	> 100 µM	> 100 µM	> 100 µM	> 100 µM	> 100 µM	> 100 µM	–	–	–	–	–	–	–	–	–	–	–
CCCCCCCCCCCCCCCC(=O)OCC1OC(n2ccc(N)nc2=O)C(O)C1O (stereo not given)	> 100 µM	> 100 µM	> 100 µM	> 100 µM	> 41.6 µM	> 40.6 µM	> 100 µM	> 100 µM	> 44.7 µM	> 100	–	–	–	–	–	–	–	–	–	–
COc1cc(CC(=O)c2ccc3c(c2)OCO3)cc(OC)c1OC	> 100 µM	> 100 µM	> 100 µM	> 100 µM	> 100 µM	> 100 µM	> 100 µM	> 100 µM	> 100 µM	–	–	–	–	–	–	–	–	–	–	–
CC[C@@]1(OC(=O)CN(C)C)C(=O)OCc2c1cc1n(c2=O)Cc2cc3ccccc3nc2-1	30.4 µM	1.32 µM and 1.76 µM	2.13 µM and 1.09 µM	0.42 µM and 0.445 µM	0.342 µM and 0.381 µM	0.147 µM	5.8 µM and 4.3 µM	7.85 µM	0.231 µM and 0.107 µM	> 100	0.806	0.322	0.101	1.44	0.0207	0.0475	0.481	0.0181	–	–
COC(=O)C1CCC(=NC2c3ccccc3-c3ccccc32)N1 (stereo not given)	> 100 µM	> 100 µM	> 100 µM	> 100 µM	> 100 µM	> 100 µM	> 100 µM	> 100 µM	> 100 µM	–	–	–	–	–	–	–	–	–	–	–
CCCCCCCCCCCCCCCC(=O)N[C@H]1CCc2cc(OC)c(OC)c(OC)c2-c2ccc(SC)c(=O)cc21	10.6 µM and 12.4 µM	1.87 µM and 6.82 µM	13.6 µM and 13.7 µM	0.656 µM and 5.65 µM	1.96 µM and 3.85 µM	2.15 µM and 10.1 µM	–	35.8 µM and > 100 µM	18.4 µM	–	0.709	2.42	3.15	–	1.25	2.96	27.9	–	2.63	2.97
CCOC(=N)CC(=O)NC(C)c1ccccc1 (stereo not given)	> 100 µM	> 100 µM	> 100 µM	> 100 µM	> 100 µM	> 100 µM	> 100 µM	> 100 µM	> 100 µM	–	–	–	–	–	–	–	–	–	–	–
Nc1ccc2c(c1)CN1C(=O)c3ccccc3C1=N2	> 125 µM	> 125 µM	> 125 µM	> 117 µM	> 125 µM	> 125 µM	69.5 µM	> 125 µM	> 125 µM	123	–	–	54.8	–	–	–	16.8	44	36.8	–
COc1cc(C2c3cc4c(cc3[C@@H](Nc3cccc(O)c3)C3COC(=O)[C@H]23)OCO4)cc(OC)c1O (stereo not given in full)	40.9 µM	8.81 µM	18.9 µM	0.902 µM and 4.04 µM	5.52 µM	3.55 µM	14.1 µM	10.7 µM	7.4 µM	24.2	–	–	0.747	–	0.445	0.623	–	0.779	0.423	0.145
CCC1NCC(=O)c2c1[nH]c1ccccc21 (stereo not given)	> 100 µM	> 100 µM	> 100 µM	> 100 µM	> 100 µM	> 100 µM	> 100 µM	> 100 µM	> 100 µM	–	–	–	–	–	–	–	–	–	–	–
C/C(=N\NC(=S)N1CCC(C2CCN(C(=S)N/N=C(\C)c3ccccn3)CC2)CC1)c1ccccn1	> 100 µM	> 100 µM	> 100 µM	> 100 µM	> 100 µM	> 100 µM	67.4 µM	> 100 µM	> 100 µM	–	–	–	–	–	–	–	–	–	–	–
Cc1cccc(N2C(=O)/C(=C/c3ccc(N(CCC#N)CCC#N)cc3C)N=C2c2cc([N+](=O)[O-])ccc2Cl)c1	> 100 µM	> 100 µM	> 100 µM	> 100 µM	> 100 µM	> 100 µM	> 100 µM	> 100 µM	> 100 µM	–	–	–	–	–	–	–	–	–	–	–
CCOC(=O)NNC(=O)NC12CC3CC(CC(C3)C1)C2	> 100 µM	> 100 µM	> 100 µM	> 100 µM	> 100 µM	> 100 µM	> 100 µM	> 100 µM	> 100 µM	–	–	–	–	–	–	–	–	–	–	–
